Assay results from US7534447B2, “Synergistic and residual pesticidal compositions containing plant essential oils” (priority 1998, dated 2009).
Like-named read-outs stand apart in the source and are kept apart here.

Key:
cockroaches [1] = assay type: in vivo
Description: (§1) Glass jars were treated with different concentrations of test chemicals in acetone. The acetone was allowed to evaporate and the cockroaches were exposed to the jars. […] This experiment was repeated 2 times.

cockroaches [2] = assay: Example 11: glass jar residual test, benzyl alcohol with signal transduction modulators; assay type: in vivo; settings: 100 mg/jar alone
Description: as §1

cockroaches [3] = assay: Example 9: glass jar residual test, benzyl alcohol with chrysanthemates; assay type: in vivo; settings: 100 mg/jar alone
Description: as §1

cockroaches [4] = assay type: in vivo; remark: listed apart in the source
Description: as §1

American cockroaches [5] = assay: Example 21: glass jar residual test, mixtures ES-2a and ES-2b; assay type: in vivo; settings: 100 mg alone
Description: (§2) Glass jars were treated with different concentrations of test chemicals in acetone. The acetone was allowed to evaporate and American cockroaches were exposed to the jars. […] This experiment was repeated 2 times.

American cockroaches [6] = assay: Example 22: glass jar residual test, benzyl alcohol with trans-anethole; assay type: in vivo; settings: 100 mg/jar alone
Description: as §2

Spodoptera litura [7] = assay: Example 20: cabbage leaf disc dip test, benzyl alcohol with pyrethrum; settings: in vivo
Description: Mixtures of 5-Blend and potential synergists were tested by application to cabbage leaf discs dipped in 1% emulsions. There were 4 leaf discs per treatment; ten 3-day old (2nd instar) Spodoptera litura larvae per disc. Potential synergists and insecticides were dissolved in THFA/Tween 20 at 10% a.i.; mixed with 5-Blend at 1:10 ratio (synergist:5-Blend). In this example, THFA/Tween 20 at a ratio of 6:1 was used as a carrier/emulsifier for pyrethrum (20% pure pyrethrins) and other test substances. The sample size for each treatment is 40 (4 replicates with 10 insects each) of Spodoptera litura.

cockroaches [8] = assay: Example 13: glass jar residual test, thymol with carbaryl; assay type: in vivo
Description: as §1

Spodoptera litura [9] = assay: Example 19: cabbage leaf disc dip test, 5-Blend with chrysanthemates; assay type: in vivo
Description: Mixtures of 5-Blend (thymol, trans-anethole, α-terpineol, eugenol, and citronellal) and potential synergists were tested by application to cabbage leaf discs dipped in 1% emulsions. There were 4 leaf discs per treatment. Ten 3-day old (2nd instar) Spodoptera litura larvae per disc. Potential synergists and insecticides were dissolved in THFA/Tween 20 (carrier/emulsifier) at 10% active ingredient level; mixed with 5-Blend at 1:10 ratio of synergist to 5-Blend. […] For each treatment there were […].

American Cockroach = assay type: in vivo; settings: 3 mg/jar alone
Description: as §1

Spodoptera litura [10] = assay: Example 18: cabbage leaf dip test, 5-Blend with conventional insecticides; assay type: in vivo; settings: foliar, 0.01 ppm
Description: Mixtures of 5-Blend (thymol, trans-anethole, α-terpineol, eugenol, and citronellal) with conventional insecticides were tested against 5-day old larvae of Spodoptera litura (2nd instar) on cabbage leaf pieces dipped in test solution. […] For each treatment there were 5 replicates with 50 larvae per replicate (n=250).

fire ants = assay: Example 5: petri dish test, 4-blend with pyrethrins and DMSO; assay type: in vivo; settings: similar experiments using DMSO
Description: […] A second sample containing four plant essential oil constituents (alpha-terpineol, benzyl alcohol, phenyl ethyl alcohol and phenyl ethyl propionate) in equal proportions by weight was prepared. Then, the first and second samples were combined in a 1:1 ratio to obtain a synergized 4-blend composition, 1 part 4-blend to 0.01 parts pyrethrins. The synergized 4-blend composition was then applied to uncovered 9 cm glass petri dishes at 100 ul each. The second sample was applied to uncovered 9 cm glass petri dishes at 500 ul each.

cockroaches [11] = assay: Example 14: glass jar residual test, thymol with conventional insecticides; assay type: in vivo; settings: 5 ug/jar alone
Description: as §1

cockroaches [12] = assay: Example 12: glass jar test, thymol with conventional insecticides; assay type: in vivo; settings: 1 hr.; 5 ug/jar alone
Description: as §1

[13] = 24 hrs., leaf discs dipped in 1% emulsions, mixtures 1:10 synergist to 5-Blend
[14] = 48 hrs., leaf discs dipped in 1% emulsions, mixtures 1:10 synergist to 5-Blend

OCc1ccccc1 [Benzyl Alcohol]
% Mortality at time interval in days after treatment (cockroaches [1]; 1 hr., 50 mg/jar alone): 0%
% Mortality at time interval in days after treatment (cockroaches [1]; 7 days, 50 mg/jar alone): 0%
% Mortality at time interval in days after treatment (cockroaches [1]; 7 days, 100 mg/jar alone): 0%
% Mortality at time interval in days after treatment (cockroaches [1]; 30 days, 50 mg/jar alone): 0%
% Mortality at time interval in days after treatment (cockroaches [1]; 30 days, 100 mg/jar alone): 0%
% Mortality at time interval in days after treatment (cockroaches [2]; 1 hr.): 100%
% Mortality at time interval in days after treatment (cockroaches [2]; 7 days): 0%
% Mortality at time interval in days after treatment (cockroaches [2]; 14 days): 0%
% Mortality at time interval in days after treatment (cockroaches [3]; 1 hr.): 70%
% Mortality at time interval in days after treatment (cockroaches [3]; 7 days): 0%
% Mortality at time interval in days after treatment (cockroaches [4]; 7 days, 100 mg/jar alone): 0%
% Mortality at time interval in days after treatment (American cockroaches [5]; 1 hr.): 100%
% Mortality at time interval in days after treatment (American cockroaches [5]; 7 days): 0%
% Mortality at time interval in days after treatment (American cockroaches [5]; 14 days): 0%
% Mortality at time interval in days after treatment (American cockroaches [6]; 1 hr.): 70%
% Mortality at time interval in days after treatment (American cockroaches [6]; 7 days): 0%
Mortality (%) 24 hrs. (Spodoptera litura [7]): 15%

CNC(=O)Oc1cccc2ccccc12 [Carbaryl]
% Mortality at time interval in days after treatment (cockroaches [8]; 1 hr., 0.1 mg/jar alone): 30%
% Mortality at time interval in days after treatment (cockroaches [8]; 1 hr., 1.0 mg/jar alone): 90%
% Mortality at time interval in days after treatment (cockroaches [8]; 7 days, 0.1 mg/jar alone): 0%
% Mortality at time interval in days after treatment (cockroaches [8]; 7 days, 1.0 mg/jar alone): 20%
% Mortality at time interval in days after treatment (cockroaches [8]; 14 days, 1.0 mg/jar alone): 0%

CC(C)=CC1C(C(=O)O)C1(C)C (centres unmarked) [Chrysanthemic Acid]
Mortality (%) (Spodoptera litura [9]; in vivo): 0%

CC(C)=CC1C(CO)C1(C)C (centres unmarked) [Chrysanthemyl Alcohol]
Mortality (%) (Spodoptera litura [9]; [13]): 0%
Mortality (%) (Spodoptera litura [9]; [14]): 0%

CC/C=C\CC1=C(C)CCC1=O [Cis-Jasmone]
% Mortality at time interval in days after treatment (American Cockroach; 1 hr.): 0%
% Mortality at time interval in days after treatment (American Cockroach; 3 days): 0%
% Mortality at time interval in days after treatment (American Cockroach; 5 days): 0%
Mortality (%) (Spodoptera litura [9]; [13]): 0%
Mortality (%) (Spodoptera litura [9]; [14]): 0%
% Mortality at time interval in days after treatment (cockroaches [4]; 1 hr., 10 mg/jar alone): 0%
% Mortality at time interval in days after treatment (cockroaches [4]; 7 days, 10 mg/jar alone): 0%

CC1(C)C(C=C(Cl)Cl)C1C(=O)OC(C#N)c1cccc(Oc2ccccc2)c1 (centres unmarked) [Cypermethrin]
mortality at 0.01 ppm (Spodoptera litura [10]; 24 hrs.): 78%
mortality at 0.01 ppm (Spodoptera litura [10]; 48 hrs.): 80%

C[S+](C)[O-] [DMSO, dimethyl sulfoxide]
synergy with plant essential oils (fire ants): proved to be synergistic with plant essential oils

CC1(C)[C@H](C(=O)O[C@H](C#N)c2cccc(Oc3ccccc3)c2)[C@@H]1C=C(Br)Br [Deltamethrin]
% Mortality at time interval in days after treatment (cockroaches [11]; 1 hr.): 30%
% Mortality at time interval in days after treatment (cockroaches [11]; 7 days): 0%
% Mortality at time interval in days after treatment (cockroaches [11]; 14 days): 0%
% Mortality at time interval in days after treatment (cockroaches [12]): 30%

C=CCc1ccc(O)c(OC)c1 [Eugenol]
% Mortality at time interval in days after treatment (cockroaches [4]; 1 hr., 10 ug/jar alone): 10%
% Mortality at time interval in days after treatment (cockroaches [4]; 7 days, 10 ug/jar alone): 20%
